Results taken from a melting point compilation (Tetko et al.; mined from patent text by program, amines drawn as free bases though some values may be those of a salt).

Compound | melting point
Cn1nc(-c2nc(O)c(Cl)cc2F)c(Cl)c1OC(F)F | 126 to 128 °C
C=CC(O)c1ccc2ccccc2c1 (stereo unspecified) | 30 to 32 °C
CCOc1nc(NC(C)C)c2cscc2n1 | 155 to 156 °C
CNc1c(C)c(C)c(OC(C)=O)c(C)c1N | 113 to 116 °C
O=C(c1sccc1-n1cccc1)N1CCOCC1 | 100 °C
COc1ccc(-c2nc(S(=O)c3ccccc3)n(C)c2-c2ccc(OC)cc2)cc1 (stereo unspecified) | 114 to 115 °C
CCOc1nn(C)c(C(F)(F)F)c1CS(=O)(=O)C1=NOC(C)(C)C1 | 124 to 125 °C
CCOc1c(C)c(N2CCN(c3ccc(F)cc3)CC2)c(C)c2c1OC(C)(C)C2 | 163 to 165 °C
CCC1(c2cccc(OCc3ccccc3)c2)COC(C)(C)O1 (stereo unspecified) | 51 to 53 °C
CCC(=S)N1CCC[C@H]1C(=O)O | 123 to 124 °C
COc1ccc(C(OCC2OC(n3cc(C)c(=O)[nH]c3=O)CC2O)(c2ccccc2)c2ccc(OC)cc2)cc1 (stereo unspecified) | 124 to 126 °C
CCC12CCC3C4CCC(OC)=CC4=CCC3C1C=CC2=O (stereo unspecified) | 159 to 161 °C
COc1c(Cl)cc(NC(C)=O)c(OC)c1N | 113 °C
Clc1cccc(OC2CCN(CCc3c[nH]c4ccccc34)CC2)c1 | 120 to 123 °C
CCCCCCCCCCCCCCNC(=O)c1cc(N)cc(C(=O)NCCCCCCCCCCCCCC)c1 | 171 to 178 °C
O=C(NCCc1cccc2ccc(OC(c3ccccc3)c3ccccc3)cc12)C1CC1 | 109 to 111 °C
CCCCCC(=O)N(NC(=O)c1ccccc1)C(C)(C)C | 117 to 118 °C
NS(=O)(=O)c1ccc(CCCCCO)s1 | 65 to 67 °C
CCNc1nc(OC)c(C(=O)NCC2CCCN2CC)nc1Cl (stereo unspecified) | 167 to 169 °C
CCCCC1(O)CCC2C3CCC4=CC(=O)CC(C)C4(C)C3CCC21C (stereo unspecified) | 85 °C
COCCOc1ccc(Nc2nc(Nc3cc4c(cc3OC)CCN(CC(=O)N(C)C)CC4)ncc2Cl)c(S(=O)(=O)C(C)C)c1 | 65 to 75 °C

Now from value to compound:

melting point | Compound
121 to 123 °C | COc1cc(C(=O)N(C(C)C)C2CCCCC2)ccc1Cn1c(-c2ccccc2Cl)nc2cccnc21
220 to 224 °C | NC(=O)c1cccc(OC2C(C(=O)O)=CC=CN2Cc2ccccc2Cl)c1 (stereo unspecified)
93 °C | CC(=O)Nc1ccc2c(c1)NC(=O)C2=C(C)C
101 to 102 °C | CCOC(=O)c1ccc(-c2nc(CCl)c(C)o2)s1
105 to 107 °C | COc1c(Cl)nc(Cl)nc1-c1ccco1
79 °C | O=C(O)CCc1cc2nc(Cl)ccc2n1S(=O)(=O)c1ccc2c(c1)CCN2
77 to 79 °C | CCOC(=O)c1c(OCC)c2ccc(C)nc2n(CC)c1=O
> 300 °C | CCc1[nH]c(=O)c(C#N)cc1-c1ccncc1
132 to 133 °C | Nc1ccc(Sc2ccccn2)cc1C(F)(F)F
108 to 111 °C | CC(C)(C#N)c1cc(-n2cncc2C=O)cc(C(C)(C)C#N)c1
250 °C | NC(=O)N1C(=O)C(C(=O)c2cccs2)c2cnccc21 (stereo unspecified)
100 to 102 °C | COc1ccc(C2=CCCc3cc(OC)ccc32)cc1
102 to 104 °C | CC(C)=CCC/C(C)=C/CSc1nc2cc(Cl)ccc2[nH]1
151 to 153 °C | COC(=O)C(=NO)c1ccccc1
100 to 101 °C | COc1cc(C(=O)N(CCCC(=O)NCCCC(=O)O)c2c(C)cccc2C)cc(OC)c1OC
267 to 268 °C | O=c1cc(-c2ccc(O)c(F)c2)oc2ncccc12
84 to 94 °C | CCOC(=O)c1c(N2CCN(C(=O)c3cccs3)CC2)c2cccnc2n(CCCN(C)C)c1=O
113 to 114 °C | COc1ccc(-c2nc(Cl)c(Oc3ccccc3OC)c(Cl)n2)cc1
179 to 180 °C | Cc1ccc(-n2nc(C#N)cc2-c2ccc(S(C)(=O)=O)cc2)cc1Br
78 to 80 °C | COc1ccc(Oc2c(C)cc(CO)cc2C)cc1C(C)C
211 to 212 °C | CC(C)(C)Cc1ccc(C#N)c(=O)[nH]1
157 to 158 °C | NN1C=Nc2ccc(Cl)cc2C1(O)c1ccccc1 (stereo unspecified)
144 to 145 °C | NC(=O)CC(O)(Cn1cncn1)c1ccc(Cl)cc1Cl (stereo unspecified)
245 to 250 °C | CC(C)(C)C1C(O)=C(C2=NS(=O)(=O)c3c(NS(C)(=O)=O)cccc32)C(=O)N1Cc1ccc(F)cc1 (stereo unspecified)
60 to 62 °C | CCOC(=O)c1cc2c(cc1OCC)C(=O)C=CC2=O
196 °C | CCN(CC)C(=O)c1ccc(Cl)c(Cl)c1Br
140 to 141 °C | Cc1cc(C(=O)NCO)ncc1C(c1c(F)ccc(F)c1F)S(=O)(=O)c1ccc(OC(F)(F)F)cc1 (stereo unspecified)
295 to 297 °C | O=C1c2cc(Cl)ccc2C(O)N1c1ccc2ccc(Cl)nc2n1 (stereo unspecified)
264 to 266 °C | O=C(O)c1ccc2cccnc2c1O
234 °C | CCOC(=O)c1nc2cc(Br)ccc2c(O)c1C(=O)OCC
